Test results as given in PubChem BioAssay (NCI).
Where “and” joins values, the source holds several entries; their conditions need not be identical. Identical values can stand only once.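 Cells were grown in 96-well plates and exposed to each compound for 48 hours at five concentrations; endpoints were interpolated linearly between bracketing concentrations, or set to the highest concentration if not reached. GI50 is the concentration that inhibits growth by half. At the TGI there is no net growth.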

Legend:
Assay in all cases: DTP human tumour cell line panel, 48 h
DMS 114 small cell lung = test system: DMS 114 small cell lung
MALME-3M melanoma = test system: MALME-3M melanoma
COLO 205 colon = test system: COLO 205 colon
MDA-MB-435 = test system: MDA-MB-435
TK-10 renal = test system: TK-10 renal
MOLT-4 leukemia = test system: MOLT-4 leukemia
DLD-1 colon = test system: DLD-1 colon
T-47D breast = test system: T-47D breast
SR leukemia = test system: SR leukemia
786-0 renal = test system: 786-0 renal

Compound | TGI (DMS 114 small cell lung) [µM] | TGI (MALME-3M melanoma) | TGI (COLO 205 colon) | TGI (MDA-MB-435) [µM] | TGI (TK-10 renal) [µM] | TGI (MOLT-4 leukemia) [µM] | TGI (DLD-1 colon) [µM] | TGI (T-47D breast) [µM] | TGI (SR leukemia) [µM] | TGI (786-0 renal) [µM] | GI50 (MALME-3M melanoma) [µM] | GI50 (COLO 205 colon) [µM] | GI50 (MDA-MB-435) [µM] | GI50 (TK-10 renal) [µM] | GI50 (T-47D breast) [µM] | GI50 (786-0 renal) [µM]
COc1ccccc1NC(=O)CC(=O)n1nc(C)c(N=Nc2ccccc2Cl)c1C | > 100 | > 100 µM | > 100 µM | > 100 | > 100 | > 100 | > 100 | > 100 | 97.9 | > 100 | – | – | – | – | – | –
CC1OC(CC(=O)O)Cc2c1c(O)c1c(O)cc(-c3cc(=O)c4c(=O)c5c(c(=O)c=4c3=O)CC(CC(=O)O)OC5C)c(O)c1c2O (configuration not stated) | 40 | 29.2 µM and 38.5 µM | 18.1 µM and 92.9 µM | 36.7 | > 93 | 21.7 | 26.4 | – | 53.9 | 46.7 | 14.2 | 29.9 | 16.8 | 34 | 30 | 32.1
COc1cc(/C=C2\NC(=O)C3Cc4c(OC)c(C)c(OC)c(OC)c4C2N3C)c(OC)c(C)c1OC (configuration not stated) | > 100 | > 100 µM | > 100 µM | – | > 100 | > 100 | > 100 | – | > 100 | > 100 | – | – | – | – | – | –
Cc1[nH]c2ccccc2c1C1=NO/C(=N\O)C(c2c(C)[nH]c3ccccc23)C1 (configuration not stated) | > 100 | > 100 µM | 41 µM | – | > 100 | 69.6 | > 100 | – | > 78.7 | > 100 | – | – | – | – | – | –
O=S1(=O)c2cc(S(=O)(=O)n3ccnc3)ccc2NC2=NCCCN21 | 49.6 | > 100 µM | 35.2 µM | – | > 100 | > 100 | > 100 | – | 75.6 | 99.6 | – | – | – | – | – | –
COc1ccccc1NC(=O)C1=C(C)NC(C)=C(C(=O)Nc2ccccc2OC)C1c1ccccc1Cl | > 100 | > 100 µM | > 100 µM | – | > 100 | > 100 | > 100 | – | > 100 | > 100 | – | – | – | – | – | –
